In article PMC9029050, “The Effectiveness of Isoplumbagin and Plumbagin in Regulating Amplitude, Gating Kinetics, and Voltage-Dependent Hysteresis of erg-mediated K^+ Currents” (Biomedicines, 2022):

Test system: T1, erg-mediated K+ channel (Kerg, KV11)
T1 construct: gene Kcnh2; native channel in GH3 pituitary tumor cells
Assay: whole-cell patch clamp of native IK(erg) in GH3 cells
Assay type: cell-based

CC1=CC(=O)c2cccc(O)c2C1=O [isoPLB, 8-hydroxy-2-methylnaphthalene-1,4-dione]
IC50: 2.4 µM
